Experimental findings from US20180064662A1 (THE GENERAL HOSPITAL CORPORATION, priority 2015, published 2018) are described below.

A value given as a limit tells only on which side of the number the result lay.

One data set deals with human pancreatic cancers. Description: HA and collagen-I staining of human PDAC surgical samples, patients with or without metformin. The format is in vivo. The source says: Human samples of pancreatic cancer were obtained from the Massachusetts General Hospital tissue repository. Written informed consent from the donor or the next of kin was obtained for the use of these samples for research purposes. Tumors selected received no prior chemotherapy or radiation therapy before the surgical specimen was collected at the time of tumor resection. A total of 28 samples were randomly selected from this subset of samples. Body mass index was obtained for the respective sample. […] Paraffin sections were stained for collagen-I and HA as described below. Images were acquired using confocal microscopy and quantified using Matlab. Data were analyzed anonymously.
For analysis of frozen sections of mouse tumor tissues, the tumors were excised and frozen in optimal cutting temperature compound (Tissue-Tek). Transverse tumor sections, 10 μm thick, were immunostained with specific antibodies. To obtain mosaic images of tumor sections, an Olympus FV1000 confocal laser-scanning microscope was used. A 10× air objective acquired 1260-μm square tiles, and an automated stage scanned throughout the entire cross-section of tumor tissue. The imaged tiles were stitched into a final mosaic image using Olympus software. Antigen expression was quantified by measuring the area occupied by the stain of interest normalized by the area of DAPI-stained nuclei (i.e., unit less), and analyzed using a custom algorithm in MATLAB (The MathWorks). Identical settings and thresholds for analysis were used for all tumors. Antibodies used for immunofluorescence were the following: Collagen-I [LF-68 antibody, 1:50 dilution, provided by Dr Larry Fisher (NIDCR)]; Hyluronan (biotinylated hyaluronan proteoglycan fragment, 385911, Calbiochem, 1:200 dilution); αSMA (C6198 antibody, Sigma, 1:500 dilution); and F4/80 (MCA497A488 antibody, ABDserotec, 1:200 dilution). Cy3-, Cy5- or FITC-conjugated secondary antibodies were used for the detection of signals by confocal microscopy. Slides were counterstained with DAPI for nuclear staining.

A further data set has as its system AK4.4 tumors. The experiment in a line: Orthotopic AK4.4 PDAC model in obese FVB mice, metformin in drinking water. The format is in vivo, mouse. The source says: Wild-type (WT) C57BL/6 and FVB male mice were originally obtained from The Jackson Laboratory (The Jackson Laboratory, Bar Harbor, Me.) and bred and maintained in our defined-flora animal facility. Mice were maintained on a 12-h light-dark cycle in a temperature-controlled barrier facility, with ad libitum access to food and acidified water. To generate obese/diabetic mouse models, mice (6-weeks old) were given a 60% fat diet (D12492, Research Diets, New Brunswick, N.J.) for 10 weeks as previously described (49-51). For tumor experiments, the PAN02 and AK4.4 syngeneic PDAC models were used in C57BL/6 and FVB immunocompetent mice, respectively. PAN02 cells (SMAD4-m174) (52) were obtained from ATCC. AK4.4 cells (KrasG12D and p53^+/−) were isolated from mice generating spontaneous pancreatic tumors (Pt∫1-Cre/LSL-Kras^G12D/p53^Loxi−) (53). Orthotopic pancreatic tumors were generated by implanting a small piece (1 mm^3) of viable tumor tissue (from a source tumor in a separate donor animal) into the pancreas of a 6-8- week-old male lean or obese FVB (AK4.4 model) or C57BL/6 (PAN02 model) mouse. Both tumor models used were authenticated by IDEXX Laboratories. (PAN02: IDEXX RADIL Case # 22366-2013. AK4.4: IDEXX RADIL Case # 27818-2014).
At day 21, plasma and tumor samples were collected, and tumors were weighed and processed for further analysis.
This can be translated to the human equivalent dose by using the Reagan-Shaw method (54). According to the formula for the human equivalent dose [(mg/kg)=animal dose (mg/kg)×animal (km)/human (km). Km for a 60 kg human adults equals 37 and for a 20 g mouse equals 3], the human equivalent of murine dose of 300 mg/kg is 1459 mg for an average sized 60 kg adult human. Therefore, the selected dose in the present study is within the safe therapeutic range recorded in humans. […] This was compatible with the therapeutic periods reported in previous studies (55, 56). […] The amount added to each animal cage was calculated based on the average daily water intake for that cage during a period of 2 weeks prior to treatment initiation, and adjusted every three days based on water consumption and body weight of the animals. […] For in vitro experiments, a range of concentration from 0.05 to 25 mM depending on the cell line used, as discussed below.
Immediately following excision, tumor tissue was snap frozen and stored in liquid nitrogen. Total RNA was extracted and relative gene expression for macrophage M1/M2 markers was determined using a Sybr-green based standard protocol. In addition, total RNA was extracted and relative gene expression was determined using RT2 Profiler PCR Arrays system (Qiagen) on a Stratagene Mx3000P QPCR System using pre-made pathway-focused arrays (“Fibrosis”-Cat. Number: PAMM011Z; “Epithelial to Mesenchymal Transition (EMT)”-Cat. Number: PAMM090Z; “TGF-β signaling targets”-PAMM235Z; “Extracellular Matrix & Adhesion Molecules”-Cat. Number: PAMM013Z; and “Common cytokines ”-Cat. Number: PAMM021Z).
Each tumor sample was homogenized directly in lysis buffer for protein extraction. 20 ug of denatured protein per sample was loaded on 7%, 10% and 12% SDS-polyacrylamide gels. Antibodies used: phospho-p38 MAPKT^180/Y182 and p38; phospho-JNK (SAPK/JNK)^Thr183/Tyr185 and JNK; phospho-AKT^Ser473 and AKT, phospho-ERK(p44/42 MAPK)^T202/Y204 and ERK; phospho-NF-κB^Ser536 and NK-κB; p65^Ser536; phospho-Smad2^Ser465/467 and Smad2; phospho-IGF-I Receptor β^Tyr1135 and IGF; Phospho-IRS-1^Ser612 and IRS; IR; phpspho-stat3^Tyr705 and stat3; Phospho-AMPKα^Thr172 and Ampkα; phospho-Ampkβ^Ser108 and Ampk; phospho-ACC^Ser79 and ACC; Phospho-PDGF Receptor β^Tyr751 and PDGF Receptor β and snail, c-cadherin and vimentin, TGF-β, β-catenin, twist, LC3B. […]

A further data set has as its system macrophage viability. Description: MTT viability assay on macrophages. It counts as cell-based, mouse. The note with it: 48 h. For orientation: Tetrazolium assays rely on reduction of a dye to a coloured formazan, in cell work by metabolically active cells.
Another data set has as its system MCA-IV tumors. The experiment in a line: MCA-IV breast cancer in lean and obese mice, anti-VEGF therapy. It counts as in vivo, mouse.
The mark [1] stands for this setting: obese FVB mice, metformin 300 mg/Kg.
[2] abbreviates: obese FVB mice, metformin 300 mg/Kg in drinking water.
Where [3] appears, read: obese FVB mice, metformin 300 mg/Kg in drinking water, day 7 to 21.

In the case of `CN(C)C(=N)N=C(N)N` [metformin, 3-(diaminomethylidene)-1,1-dimethylguanidine], the collagen-I expression result in the data set with human pancreatic cancers (either body weight group) was “no impact”. The “levels of HA lower than in patients not taking metformin” value with human pancreatic cancers (overweight or obese patients, chemo/radiotherapy naive PDAC surgical samples) came out at 30%. Also, in the data set on human pancreatic cancers (patients of normal weight), the HA levels entry is “no difference”. Also, the “expression of genes involved in ECM remodeling (including MMPs) and EMT” value in the data set with AK4.4 tumors (PCR array, pooled samples) is “reduced the expression”. Also, in the data set on AK4.4 tumors (Western blot), the “E-cadherin, protein expression” value is given as “increased”; the “EMT marker vimentin, protein expression” value was “decreased”; the “activation of metabolic pathways in tumors” value is “did not affect the activation of metabolic pathways”; the “expression of the autophagy marker L3CB” value was “unchanged”. Further, the “reduction of metalloproteinase 9 (MMP9) protein” value in the data set on AK4.4 tumors (Western blot, metformin 300 mg/Kg) turned out to be 70%. Moreover, the “MMP activity in tumors” value with AK4.4 tumors (compared to control mice) is reported as “decreased”. Moreover, in the data set with AK4.4 tumors (setting [1]), the “TAM levels lower with metformin treatment (F4/80)” value was 60%; the “activation of STAT3 in whole tumors” value was “decreased activation of STAT3”; the “expression of IL-1β and CXCL-1 in tumors (multiplex protein array)” value was “reduced the expression of IL-1β and CXCL-1”. For the same compound, in the data set on AK4.4 tumors (setting [2]), the “decrease of percentage of activated (αSMA) PSCs that co-express HA” value turned out to be 58%, the “decrease of percentage of activated (αSMA) PSCs that co-express collagen-I” value stood at 38% and the “expression of AT1 in tumors (Western blot)” value was “reduce the expression of AT1”. Moreover, in the data set with AK4.4 tumors (setting [3]), the “reduced expression of HA” value was determined as 64% and the “reduced expression of collagen-I” value was 35%. Moreover, the body weight result with AK4.4 tumors (tumor-bearing mice) is “no change in body weight”. The “doses at which metformin reduces macrophage viability” value with macrophage viability is more than 0.2 mM. Besides, in the data set on macrophage viability (listed as Metformin), the “doses at which metformin reduces macrophage viability” value was not below 0.4 mM. In the data set with MCA-IV tumors (obese animals treated with anti-VEGF), the “FGF-2 gene and protein expression, downstream signaling” value is given as “decreases”. Besides, the vessel density entry in the data set on MCA-IV tumors (obese animals treated with anti-VEGF, metformin) is “decreases”. For the same compound, in the data set on MCA-IV tumors (obese setting, metformin), the “tumor growth response to anti-VEGF” value is listed as “improved tumor growth response to anti-VEGF”.
